In PMC12040169 (PLOS Biology, 2025):

assay: in vitro; details: human, hela cells, % viability

SMILES	viability at 28.5 h, 10 µM
Cc1ccc(C(=O)O)cc1S(=O)(=O)N(CCO)CCO [CBK267335]	102%
CCOc1cc(/C=C/c2nc(O)c([N+](=O)[O-])c(=O)[nH]2)ccc1OCC(N)=O [CBK267337]	96%
CC(=O)Nc1ccc(S(=O)(=O)N2CCN(c3cc4c(cc3[N+](=O)[O-])n(C)c(=O)n4C)CC2)cc1 [CBK267338]	91.9%
O=C(Cn1c(C(F)(F)F)nc2ccccc21)NCCN1CCOCC1 [CBK267339]	100%
O=[N+]([O-])c1cc(-c2nnc(-c3ccccc3)o2)ccc1-n1c(-c2ccccc2)nnc1-c1ccccc1 [CBK267341]	99.2%
O=C(CN1C(=O)CSc2ccccc21)Nc1ccccc1C(=O)N1CCOCC1 [CBK267343]	104%
Nc1ncnc(Nc2ccc(Nc3ccccc3)cc2)c1[N+](=O)[O-] [CBK267347]	88.9%
N=C(N)Nc1nc(-c2ccccc2)c2cc(F)ccc2n1 [CBK267350]	82.7%
O=C1CC(C(=O)c2ccccc2)NC(N2CCOCC2)=N1 (stereo not shown) [CBK267352]	105%
O=C(CC1NC(=O)NC1=O)Nc1ccc(C(=O)O)cc1 (stereo not shown) [CBK267355]	99.1%
CC(C)(C)c1ccc(NC(=O)C(=O)NCCCn2ccnc2)cc1 [CBK267358]	108%
Cc1nc(N)sc1-c1nnc(SCC(=O)Nc2ccccc2C(F)(F)F)n1C [CBK267359]	99.5%
O=C(CSc1nc[nH]n1)c1ccc2c(c1)OCCO2 [CBK267360]	101%
O=C(COc1ccc2ccccc2c1Br)NCc1ccccn1 [CBK267361]	84.1%
CCC(C)Oc1ccccc1OCCN1C(=O)NC(C)(C)C1=O (stereo not shown) [CBK267362]	98.5%
Cc1ccc(/C(N)=N/OC(=O)CN(C)S(=O)(=O)c2ccc3ccccc3c2)cc1 [CBK267363]	104%
C=CCn1c(SCc2nnc(-c3ccccc3)o2)nnc1C(O)c1ccccc1 (stereo not shown) [CBK267368]	110%
Cn1c(SCC(=O)n2c3c(c4ccccc42)CCCC3)nnc1-c1ccco1 [CBK267370]	99.2%
CC(C)c1ccc(NC(=O)CSc2nnc(Cc3cccc4ccccc34)o2)cc1 [CBK267371]	88.7%
CC(=O)Nc1ccccc1NC(=O)CN(C)S(=O)(=O)c1ccc(Cl)cc1 [CBK267373]	93.2%
CCN1CCN(CCOc2c(OC)cccc2OC)CC1 [CBK267375G]	96.9%
Cc1ccc(S(=O)(=O)Nc2cccc3ccccc23)c([N+](=O)[O-])c1 [CBK267381]	71.9%

SMILES	viability at 28.5 h, 10 µM
O=C(CSc1nnc(Cc2cccc3ccccc23)n1-c1ccccc1)NC1CC1 [CBK267382]	86.3%
CN(C)S(=O)(=O)c1ccc(C(=O)Nc2ccc(N3CCOCC3)c(Cl)c2)cc1 [CBK267383]	87.7%
CN(CC(=O)NNC(=O)c1cccnc1)S(=O)(=O)c1cc(Cl)ccc1Cl [CBK267388]	92.2%
O=C(NCCOc1cccc(Cl)c1Cl)c1ccccc1-c1ccccc1 [CBK267390]	40.6%
Cc1ccc(C)c(OCCNS(=O)(=O)c2cc([N+](=O)[O-])ccc2C)c1 [CBK267393]	87.1%
N#Cc1cccc(CSc2nnc(-c3ccccc3O)n2Cc2ccccc2)c1 [CBK267395]	85.8%
O=C(Nc1ccccc1)c1ccccc1OCc1ccc(S(=O)(=O)N2CCOCC2)cc1 [CBK267396]	92.8%
O=C(O)Cc1ccc(NC(=O)c2cccnc2C(=O)O)cc1 [CBK267397]	97.2%
CCCC(=O)Nc1ccccc1NC(=O)c1cccc([N+](=O)[O-])c1C [CBK267398]	92.1%
O=C(NNC(=O)c1ccc2c(c1)C(=O)N(Cc1ccco1)C2=O)c1cccnc1 [CBK267403]	91%
CC(C)(c1ccccc1)c1ccc(OCc2ccc(S(=O)(=O)N3CCOCC3)cc2)cc1 [CBK267407]	96.8%
Nc1nc(CSc2nnc(Cc3ccc([N+](=O)[O-])cc3)n2-c2ccccc2)cs1 [CBK267408]	93.5%
CN(CC(=O)NNC(=O)c1cccs1)S(=O)(=O)c1ccc2ccccc2c1 [CBK267409]	90.8%
Cc1ccc(S(=O)(=O)Nc2ccc(S(=O)(=O)Nc3nccs3)cc2)c([N+](=O)[O-])c1 [CBK267410]	85.9%
O=C(OCc1ccc(S(=O)(=O)N2CCOCC2)cc1)c1cc(-c2ccccc2)nc2ccccc12 [CBK267411]	89.6%
COc1ccc(CCNS(=O)(=O)c2cc([N+](=O)[O-])ccc2C)cc1OC [CBK267412]	94.2%
C/C=C/c1ccc(OCCCSc2nc(C)cc(O)n2)c(OC)c1 [CBK267413]	93.5%
COc1ccc(CC(=O)Nc2ccc(-c3nnc(-c4ccccc4)o3)cc2)cc1OC [CBK267414]	94.9%
O=C(Nc1ccc(O)cc1C(=O)O)c1ccc2c(c1)C(=O)N(Cc1ccco1)C2=O [CBK267418]	103%
Cc1ccc(NC(=O)CSc2nnc(C(O)c3ccccc3)n2-c2ccccc2)c(Br)c1 (stereo not shown) [CBK267421]	89.8%
CN(CC(=O)Nc1ccc([N+](=O)[O-])cc1)S(=O)(=O)c1ccc2ccccc2c1 [CBK267422]	92.7%
COc1ccc(CSCc2n[nH]c(=O)[nH]2)cc1[N+](=O)[O-] [CBK267425]	101%

SMILES	viability at 28.5 h, 10 µM
Oc1n[nH]c(CSCc2ccccc2Cl)n1 [CBK267427]	87.6%
CC(Oc1ccccc1)C(=O)N1CCN(CCO)CC1 (stereo not shown) [CBK267428]	98.6%
Cc1nn(C)c(C)c1NC(=O)CSc1nnc(-c2cccc(Br)c2)n1-c1ccccc1 [CBK267430]	103%
CC(Oc1ccc(C(C)(C)C)cc1)C(=O)Nc1nnc[nH]1 (stereo not shown) [CBK267431]	94.8%
CN(CC(=O)Nc1ccccc1-c1ccccc1)S(=O)(=O)c1ccc2ccccc2c1 [CBK267432]	104%
O=C(O)CNC(=O)c1ccc(S(=O)(=O)N2CCCC2)cc1 [CBK267434]	87%
COc1cc(NC(=O)c2ccc3c(c2)C(=O)N(Cc2ccco2)C3=O)c(C(=O)O)cc1OC [CBK267436]	105%
O=C(O)CNC(=O)c1ccc(S(=O)(=O)N2CCOCC2)cc1 [CBK267437]	112%
O=C1CC(N2CCC(c3nc4ccccc4s3)CC2)C(=O)N1Cc1ccccc1 (stereo not shown) [CBK267438]	90%
COC(=O)c1ccccc1NC(=O)CSc1nnnn1C [CBK267441]	90%
Cn1nnnc1SCC(=O)Nc1ccc(C(=O)O)cc1 [CBK267442]	87.3%
CCOC(=O)CC(=O)CSc1nc(C)cc(-c2cccs2)c1C#N [CBK267446]	86.6%
N#Cc1c(C(F)(F)F)cc(-c2ccco2)nc1SCc1ccccn1 [CBK267450]	88.5%
N#Cc1c(C(F)(F)F)cc(-c2ccncc2)nc1SCCN1CCCCCC1 [CBK267451]	85.3%
CC(Sc1nc(-c2cccnc2)ccc1C#N)C(=O)O (stereo not shown) [CBK267452]	90.7%
CCc1[nH]nc2c1C1(CN3CCC1CC3)C(C#N)=C(N)O2 (stereo not shown) [CBK267454]	101%
N#Cc1sc2nc(C34CC5CC(CC(C5)C3)C4)ccc2c1N [CBK267455]	93.8%
COc1cccc(CSC2=C(C#N)C(c3cccs3)C(C(=O)Nc3ccccc3)=C(C)N2)c1 (stereo not shown) [CBK267458]	83.2%
CCOC(=O)CC(=O)CSc1nc(C)cc(-c2cccnc2)c1C#N [CBK267460]	94%
COc1cc2c(cc1OC)CN(C(=O)CSc1nc3c(c(-c4cccs4)c1C#N)CN(C)CC3)CC2 [CBK267462]	91.3%
COc1cc2c(cc1OC)CN(C(=O)CSc1nc(-c3cccnc3)ccc1C#N)CC2 [CBK267464]	69.8%
COc1ccc(NC(=O)CN2CCN(S(=O)(=O)N(C)C)CC2)cc1 [CBK267465]	93.3%

SMILES	viability at 28.5 h, 10 µM
O=S(=O)(N1CCNCC1)N1CCOCC1 [CBK267467]	88.5%
OC(COc1cccc(Oc2ccccc2)c1)CN1CCN(c2ccccc2F)CC1 (stereo not shown) [CBK267468]	95.5%
O=C(c1cccc([N+](=O)[O-])c1)N1CCN(S(=O)(=O)N2CCOCC2)CC1 [CBK267469]	100%
O=C(Cc1cccc2ccccc12)NC(=S)Nc1cccc(C(=O)O)c1 [CBK267471]	90.7%
Cc1ccc(S(=O)(=O)NC2(C(F)(F)F)NC(=O)N(c3ccc(F)c(Cl)c3)C2=O)cc1 (stereo not shown) [CBK267473]	97.2%
O=C1NC(c2ccccc2)=NC1(NS(=O)(=O)c1ccccc1)C(F)(F)F (stereo not shown) [CBK267474]	88.3%
CC(C)(C)C(=O)NC1(C(F)(F)F)N=C(c2ccccc2)NC1=O (stereo not shown) [CBK267475]	88.7%
Cc1cccc(NC2(C(F)(F)F)N=C(c3ccccc3)NC2=O)n1 (stereo not shown) [CBK267476]	92.9%
Cc1cc(C)c2c(C)nn(-c3ccc(C(=O)O)cc3)c2n1 [CBK267480]	89.6%
Cc1cc(C)c2c(C(C)(C)C)nn(-c3ccc(C(=O)O)cc3)c2n1 [CBK267481]	88.4%
Cc1ccccc1C(=O)NC1(C(F)(F)F)C(=O)Nc2c1c(=O)[nH]c(=O)n2CCc1ccccc1 (stereo not shown) [CBK267483]	86.6%
O=C1N2CCSC2=NC1(Nc1nccs1)C(F)(F)F (stereo not shown) [CBK267484]	84.1%
COc1cc(C2NC(=S)NC(c3ccccc3)=C2C(=O)c2ccccc2)cc(I)c1OCCO (stereo not shown) [CBK267485]	86.7%
COC(=O)c1c(NC(=S)NC(=O)c2c(Br)c(C)nn2C)sc2c1CCCCCC2 [CBK267486]	94.5%
Cc1cc(O)nc(SCC(=O)Nc2cc([N+](=O)[O-])ccc2C)n1 [CBK267488]	97.9%
Cn1c(=O)c2c(nc(NCCO)n2CCc2ccccc2)n(C)c1=O [CBK267497]	87.8%
Cn1c(OCc2cccnc2)nc2c1c(=O)n(Cc1ccc(Cl)c(Cl)c1)c(=O)n2C [CBK267498]	84.2%
COc1cccc(NC(=O)CN(c2cccc(C(C)=O)c2)S(C)(=O)=O)c1 [CBK267502]	111%
CC1CCN(CC(CS(=O)(=O)c2ccc([N+](=O)[O-])cc2)N2CCC(C)CC2)CC1 (stereo not shown) [CBK267506]	86.2%
